Test results: patent US20230203059A1, “MACROCYCLIC JAK INHIBITOR AND USES THEREOF” (Biopolar Hongye (Guangdong) Pharmaceutical Co. Ltd., priority 2020, published 2023)

What was measured:
Format in all cases: biochemical
[1] = target: T1, JAK3 (Homo sapiens, UniProt P52333); test: JAK kinase activity, homogeneous time-resolved fluorescence (JAK3 reaction system); details: ATP 2 μM, JAK3 protein 0.04 ng/μL; read-out: JAK 3 activity
T1 sequence (P52333 1-1124): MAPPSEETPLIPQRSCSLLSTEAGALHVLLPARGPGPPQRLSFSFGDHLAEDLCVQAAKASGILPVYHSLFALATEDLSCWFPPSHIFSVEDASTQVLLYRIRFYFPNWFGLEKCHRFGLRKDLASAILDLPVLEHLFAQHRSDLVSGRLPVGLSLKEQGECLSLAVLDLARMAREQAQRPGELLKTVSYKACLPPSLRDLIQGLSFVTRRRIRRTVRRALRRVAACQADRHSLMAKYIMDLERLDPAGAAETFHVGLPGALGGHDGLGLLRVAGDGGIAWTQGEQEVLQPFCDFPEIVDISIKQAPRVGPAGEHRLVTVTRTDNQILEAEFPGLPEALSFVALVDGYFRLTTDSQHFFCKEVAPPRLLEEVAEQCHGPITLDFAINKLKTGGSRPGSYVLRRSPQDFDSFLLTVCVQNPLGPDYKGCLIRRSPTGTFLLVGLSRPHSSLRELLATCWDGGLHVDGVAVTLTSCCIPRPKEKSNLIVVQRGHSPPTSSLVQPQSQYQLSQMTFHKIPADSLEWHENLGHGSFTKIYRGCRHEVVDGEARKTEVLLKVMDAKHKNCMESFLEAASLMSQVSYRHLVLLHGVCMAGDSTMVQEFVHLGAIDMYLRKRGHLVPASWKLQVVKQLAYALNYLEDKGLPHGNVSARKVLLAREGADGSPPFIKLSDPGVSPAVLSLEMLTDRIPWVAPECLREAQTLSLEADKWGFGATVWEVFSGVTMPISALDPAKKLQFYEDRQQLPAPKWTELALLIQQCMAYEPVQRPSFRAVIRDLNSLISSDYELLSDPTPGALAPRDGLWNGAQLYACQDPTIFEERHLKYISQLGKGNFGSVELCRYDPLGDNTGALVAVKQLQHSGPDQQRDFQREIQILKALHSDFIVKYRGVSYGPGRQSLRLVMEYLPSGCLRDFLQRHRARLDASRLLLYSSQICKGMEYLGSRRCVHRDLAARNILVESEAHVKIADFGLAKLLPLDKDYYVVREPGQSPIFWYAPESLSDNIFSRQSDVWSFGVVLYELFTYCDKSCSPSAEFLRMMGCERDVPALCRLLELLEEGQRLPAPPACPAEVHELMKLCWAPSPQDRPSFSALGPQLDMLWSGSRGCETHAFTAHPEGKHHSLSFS

[2] = target: TYK2 (Homo sapiens, UniProt P29597); test: JAK kinase activity, homogeneous time-resolved fluorescence (TYK2 reaction system); details: ATP 2 μM, TYK2 protein 0.2 ng/μL; read-out: TYK 2 activity
TYK2, sequence (P29597 whole entry): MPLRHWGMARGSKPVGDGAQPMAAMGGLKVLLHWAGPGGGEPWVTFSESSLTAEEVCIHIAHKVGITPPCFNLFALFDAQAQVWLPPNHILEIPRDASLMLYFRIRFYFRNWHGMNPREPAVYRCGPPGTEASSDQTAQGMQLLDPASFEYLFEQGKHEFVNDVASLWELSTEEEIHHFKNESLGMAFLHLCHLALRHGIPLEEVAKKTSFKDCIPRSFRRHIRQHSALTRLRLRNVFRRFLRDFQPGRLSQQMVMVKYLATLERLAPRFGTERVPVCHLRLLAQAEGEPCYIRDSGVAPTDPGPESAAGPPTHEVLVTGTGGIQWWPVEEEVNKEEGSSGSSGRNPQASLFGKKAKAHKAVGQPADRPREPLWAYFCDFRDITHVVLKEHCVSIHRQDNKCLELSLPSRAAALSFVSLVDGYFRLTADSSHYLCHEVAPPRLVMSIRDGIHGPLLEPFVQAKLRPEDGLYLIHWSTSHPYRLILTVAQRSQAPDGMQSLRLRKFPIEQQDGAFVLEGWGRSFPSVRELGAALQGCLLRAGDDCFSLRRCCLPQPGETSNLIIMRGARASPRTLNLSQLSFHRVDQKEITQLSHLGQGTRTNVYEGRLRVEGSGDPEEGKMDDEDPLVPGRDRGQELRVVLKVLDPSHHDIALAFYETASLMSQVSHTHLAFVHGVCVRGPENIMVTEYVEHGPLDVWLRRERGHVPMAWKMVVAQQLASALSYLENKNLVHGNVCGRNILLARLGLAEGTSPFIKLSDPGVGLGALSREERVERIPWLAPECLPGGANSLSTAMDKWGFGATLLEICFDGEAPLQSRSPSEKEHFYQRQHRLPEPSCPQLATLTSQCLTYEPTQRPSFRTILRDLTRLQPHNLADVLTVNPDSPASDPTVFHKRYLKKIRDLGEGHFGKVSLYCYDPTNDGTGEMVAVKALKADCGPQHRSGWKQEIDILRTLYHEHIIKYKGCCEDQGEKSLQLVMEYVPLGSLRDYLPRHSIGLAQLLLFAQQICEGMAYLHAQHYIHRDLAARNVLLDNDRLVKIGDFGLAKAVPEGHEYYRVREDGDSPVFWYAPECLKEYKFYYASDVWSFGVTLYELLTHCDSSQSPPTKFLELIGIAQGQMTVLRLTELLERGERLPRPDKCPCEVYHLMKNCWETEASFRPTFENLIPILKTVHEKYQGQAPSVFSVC
Procedure, shortened: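 Activity read as the 665 nm/615 nm ratio after adding EDTA-containing detection mix with anti-phospho-substrate antibody and XL-615. Beforehand, 0.2 ng/μL TYK2, 2 μM ATP, substrate and compound reacted 1 h in pH 7.0 Hepes buffer with MgCl2 and DTT. IC50 fitted with Hill-slope equation.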

[3] = target: JAK1 (Homo sapiens, UniProt P23458); test: JAK kinase activity, homogeneous time-resolved fluorescence (JAK1 reaction system); details: ATP 2 μM, JAK1 protein 0.2 ng/μL; read-out: JAK 1 activity
JAK1, sequence (P23458 whole entry): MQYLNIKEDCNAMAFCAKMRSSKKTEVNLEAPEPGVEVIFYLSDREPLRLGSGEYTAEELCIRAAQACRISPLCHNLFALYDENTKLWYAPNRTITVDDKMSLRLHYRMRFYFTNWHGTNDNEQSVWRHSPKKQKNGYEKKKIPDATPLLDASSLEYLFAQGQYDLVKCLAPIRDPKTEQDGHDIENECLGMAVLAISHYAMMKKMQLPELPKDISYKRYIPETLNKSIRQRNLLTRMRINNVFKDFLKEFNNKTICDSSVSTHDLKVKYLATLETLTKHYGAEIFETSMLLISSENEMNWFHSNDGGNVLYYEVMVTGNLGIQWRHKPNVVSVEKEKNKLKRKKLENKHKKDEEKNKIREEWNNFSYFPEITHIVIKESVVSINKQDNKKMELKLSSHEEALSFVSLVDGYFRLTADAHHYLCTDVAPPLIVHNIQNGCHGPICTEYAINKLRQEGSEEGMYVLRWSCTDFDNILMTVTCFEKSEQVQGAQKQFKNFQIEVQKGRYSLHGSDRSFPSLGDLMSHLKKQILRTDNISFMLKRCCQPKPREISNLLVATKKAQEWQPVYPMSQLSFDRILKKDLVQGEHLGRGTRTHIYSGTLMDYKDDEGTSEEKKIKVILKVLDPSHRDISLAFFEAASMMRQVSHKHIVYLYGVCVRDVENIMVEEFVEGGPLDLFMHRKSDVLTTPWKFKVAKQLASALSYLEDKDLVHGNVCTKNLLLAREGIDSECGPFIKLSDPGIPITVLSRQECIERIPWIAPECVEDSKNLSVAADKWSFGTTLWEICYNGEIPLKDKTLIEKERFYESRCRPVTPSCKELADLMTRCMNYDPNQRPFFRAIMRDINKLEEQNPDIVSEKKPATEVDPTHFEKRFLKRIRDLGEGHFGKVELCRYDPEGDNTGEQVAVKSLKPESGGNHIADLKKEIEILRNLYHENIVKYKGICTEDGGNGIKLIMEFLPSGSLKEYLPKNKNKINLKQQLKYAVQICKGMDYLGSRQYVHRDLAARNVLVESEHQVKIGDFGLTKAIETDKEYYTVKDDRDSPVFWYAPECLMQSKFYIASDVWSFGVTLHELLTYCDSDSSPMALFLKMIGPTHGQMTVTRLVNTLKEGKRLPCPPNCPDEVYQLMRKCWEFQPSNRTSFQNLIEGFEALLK
Procedure, shortened: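 HTRF assay: JAK1 (0.2 ng/μL) with 2 μM ATP and substrate in 50 mM Hepes pH 7.0, 5 mM MgCl2, 1 mM DTT, 1 h. Phospho-substrate antibody/XL-615 detection with EDTA; 665/615 nm ratio, excitation 320 nm. IC50 from Hill-type fit against no-enzyme and no-compound controls.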

[4] = target: JAK2 (Homo sapiens, UniProt O60674); test: JAK kinase activity, homogeneous time-resolved fluorescence (JAK2 reaction system); details: ATP 2 μM, JAK2 protein 0.01 ng/μL
JAK2, sequence (O60674 whole entry): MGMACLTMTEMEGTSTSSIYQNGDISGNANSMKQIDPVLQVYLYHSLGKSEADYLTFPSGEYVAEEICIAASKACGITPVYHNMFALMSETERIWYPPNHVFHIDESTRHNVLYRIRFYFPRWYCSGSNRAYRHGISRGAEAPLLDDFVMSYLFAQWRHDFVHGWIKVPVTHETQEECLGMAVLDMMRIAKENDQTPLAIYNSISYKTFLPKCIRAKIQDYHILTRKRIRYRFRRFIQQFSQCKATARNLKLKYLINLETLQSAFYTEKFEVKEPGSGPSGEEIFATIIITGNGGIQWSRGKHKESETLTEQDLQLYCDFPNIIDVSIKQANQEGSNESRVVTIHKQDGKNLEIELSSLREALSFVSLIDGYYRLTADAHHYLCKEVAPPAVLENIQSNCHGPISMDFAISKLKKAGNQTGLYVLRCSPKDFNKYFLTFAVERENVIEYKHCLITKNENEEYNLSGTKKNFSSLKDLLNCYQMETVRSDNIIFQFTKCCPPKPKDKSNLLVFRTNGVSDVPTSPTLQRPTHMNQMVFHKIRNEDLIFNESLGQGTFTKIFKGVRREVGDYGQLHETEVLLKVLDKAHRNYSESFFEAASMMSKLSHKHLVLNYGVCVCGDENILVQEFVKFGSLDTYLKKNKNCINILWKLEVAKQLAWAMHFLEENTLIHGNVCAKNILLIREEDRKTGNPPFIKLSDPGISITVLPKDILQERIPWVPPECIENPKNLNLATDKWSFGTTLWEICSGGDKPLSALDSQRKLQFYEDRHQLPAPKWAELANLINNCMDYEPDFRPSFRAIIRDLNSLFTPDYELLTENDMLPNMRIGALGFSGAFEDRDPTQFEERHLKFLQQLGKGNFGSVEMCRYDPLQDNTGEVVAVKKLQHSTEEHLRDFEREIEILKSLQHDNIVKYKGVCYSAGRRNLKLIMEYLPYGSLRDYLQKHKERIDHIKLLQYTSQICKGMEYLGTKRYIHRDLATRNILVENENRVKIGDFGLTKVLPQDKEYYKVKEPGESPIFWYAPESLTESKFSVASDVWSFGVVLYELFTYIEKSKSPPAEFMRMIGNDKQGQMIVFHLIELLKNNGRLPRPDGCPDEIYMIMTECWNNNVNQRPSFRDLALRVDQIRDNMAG
Procedure, shortened: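 IC50 derived by Hill-equation fit of the 665/615 nm time-resolved fluorescence ratio after EDTA-containing detection mix with anti-phosphosubstrate antibody. Preceding 1 h reaction contained 2 μM ATP, 0.01 ng/μL JAK2, substrate, 50 mM Hepes pH 7.0, 5 mM MgCl2, 1 mM DTT.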

SMILES	IC50 [1] [µM]	IC50 [2] [µM]	IC50 [3] [µM]	IC50 [4] [µM]
O=C1NCCCCOCc2cc(cc(Cl)c2N2CCOCC2)Nc2nccc(n2)-c2ccc1cc2 [Example 8, 4^5-chloro-4^4-morpholin-6-oxa-3,11-diaza-2(4,2)-pyrimidina-1(1,4),4(1,3)-dibenzenacyclododecaphan-12-one]	0.011 to 0.1	0.101 to 1	0.101 to 1	0.011 to 0.1
O=C1NCCCCOCc2cc(ccc2OCC2Cc3ccccc3C2)Nc2nccc(n2)-c2ccc1cc2[N+](=O)[O-] [Example 122, 4^4-((2,3-dihydro-1H-inden-2-yl)methoxy)-1^2-nitro-6-oxa-3,11-diaza-2(4,2)-pyrimidina-1(1,4),4(1,3)-dibenzenacyclododecaphan-12-one]	0.101 to 1	> 10	> 10	> 10
CC1CCOCc2cc(ccc2OC2CC2)Nc2nccc(n2)-c2ccc(cc2[N+](=O)[O-])C(=O)NC1 (centres unmarked) [Example 158, 4^4-cyclopropoxy-9-methyl-1^2-nitro-6-oxa-3,11-diaza-2(4,2)-pyrimi-dina-1(1,4),4(1,3)-dibenzenacyclo-dodecaphan-12-one]	0.101 to 1	> 10	1 to 10	> 10
O=C1NCCCCOCc2cc(ccc2OCC2CCCC2)Nc2nccc(n2)-c2ccc1cc2[N+](=O)[O-] [Example 104, 4^4-(cyclopentylmethoxy)-1^2-nitro-6-oxa-3,11-diaza-2(4,2)-pyrimidina-1(1,4),4(1,3)-dibenzenacyclodo-decaphan-12-one]	0.101 to 1	> 10	> 10	1 to 10
O=C1NCCCCOCc2cc(ccc2N2CCOCC2)Nc2nccc(n2)-c2ccc1cc2Cl [Example 30, 1^2-chloro-4^4-morpholin-6-oxa-3,11-diaza-2(4,2)-pyrimidina-1(1,4),4(1,3)-dibenzenacyclododecaphan-12-one]	0.011 to 0.1	0.101 to 1	0.101 to 1	0.011 to 0.1
CC1CCNC(=O)c2ccc(c(N)c2)-c2ccnc(n2)Nc2ccc(OCC3CC3)c(c2)COC1 (centres unmarked) [Example 145, 1^2-amino-4^4-(cyclopropylmethoxy)-8-methyl-6-oxa-3,11-diaza-2(4,2)-pyrimidina-1(1,4),4(1,3)-dibenzena-cyclododecaphan-12-one]	< 0.01	1 to 10	0.101 to 1	0.101 to 1
Nc1cc2ccc1-c1ccnc(n1)Nc1ccc(OCC3CCCC3)c(c1)COCCCCNC2=O [Example 105, 1^2-amino-4^4-(cyclopentylmethoxy)-6-oxa-3,11-diaza-2(4,2)-pyrimidi-na-1(1,4),4(1,3)-dibenzenacyclodo-decaphan-12-one]	< 0.01	> 10	1 to 10	0.101 to 1
CC1CCOCc2cc(ccc2OCC2CCOC2)Nc2nccc(n2)-c2ccc(cc2[N+](=O)[O-])C(=O)NC1 (centres unmarked) [Example 166, 9-methyl-1^2-nitro-4^4-((tetrahydro-furan-3-yl)methoxy)-6-oxa-3,11-di-aza-2(4,2)-pyrimidina-1(1,4),4(1,3)-dibenzenacyclododecaphan-12-one]	0.101 to 1	> 10	1 to 10	1 to 10
Nc1cc2ccc1-c1ccnc(n1)Nc1ccc(OCC3CCCOC3)c(c1)COCCCCNC2=O (centres unmarked) [Example 147]	< 0.01	1 to 10	0.101 to 1	0.101 to 1
O=C1NCCCCOCc2cccc(c2)Nc2nccc(n2)-c2ccc1cc2[N+](=O)[O-] [Example 53, 1^2-nitro-6-oxa-3,11-diaza-2(4,2)-py-rimidina-1(1,4),4(1,3)-dibenzenacyclo-dodecaphan-12-one]	1 to 10	> 10	1 to 10	> 10
Nc1cc2ccc1-c1ccnc(n1)Nc1ccc(N3CCOCC3)c(c1)COCCCCCCNC2=O [Example 57, 1^2-amino-4^4-morpholin-6-oxa-3,13-diaza-2(4,2)-pyrimidina-1(1,4),4(1,3)-dibenzenacyclotetradecaphan-14-one]	0.011 to 0.1	0.101 to 1	1 to 10	0.101 to 1
Nc1cc2ccc1-c1ccnc(n1)Nc1ccc(OC3CC3)c(c1)COCCCCNC2=O [Example 74, 1^2-amino-4^4-cyclopropoxy-6-oxa-3,11-diaza-2(4,2)-pyrimidina-1(1,4),4(1,3)-dibenzenacyclododecaphan-12-one]	< 0.01	1 to 10	1 to 10	0.101 to 1
Nc1cc2ccc1-c1ccnc(n1)Nc1ccc(F)c(c1)COCCCCNC2=O [Example 69, 1^2-amino-4^4-fluoro-6-oxa-3,11-diaza-2(4,2)-pyrimidina-1(1,4),4(1,3)-di-benzenacyclododecaphan-12-one]	0.011 to 0.1	1 to 10	1 to 10	0.101 to 1
CC1CCOCc2cc(ccc2OC2CCCC2)Nc2nccc(n2)-c2ccc(cc2N)C(=O)NC1 (centres unmarked) [Example 184, 1^2-amino-4^4-(cyclopentoxy)-9-meth-yl-6-oxa-3,11-diaza-2(4,2)-pyrimi-dina-1(1,4),4(1,3)-dibenzenacyclo-dodecaphan-12-one]	< 0.01	1 to 10	1 to 10	0.101 to 1
O=C1NCCCCOCc2cc(ccc2OC2COC2)Nc2nccc(n2)-c2ccc1cc2[N+](=O)[O-] [Example 72, 1^2-nitro-4^4-(oxetan-3-oxy)-6-oxa-3,11-diaza-2(4,2)-pyrimidina-1(1,4),4(1,3)-dibenzenacyclododecaphan-12-one]	0.101 to 1	> 10	1 to 10	1 to 10
O=C1Nc2ccc(cc2)OCc2cc(ccc2OCC2CC(F)(F)C2)Nc2nccc(n2)-c2ccc1cc2[N+](=O)[O-] [Example 209, 4^4-((3,3-difluorocyclobutyl)methoxy)-1^2-nitro-6-oxa-3,8-diaza-2(4,2)-pyrimidina-1,7(1,4),4(1,3)-tri-benzenacyclononaphane-9-one]	1 to 10	> 10	> 10	1 to 10
Nc1cc2ccc1-c1ccnc(n1)Nc1ccc(OCC3CCC3)c(c1)COCCCCNC2=O [Example 100, 1^2-amino-4^4-(cyclobutylmethoxy)-6-oxa-3,11-diaza-2(4,2)-pyrimidina-1(1,4),4(1,3)-dibenzenacyclododeca-phan-12-one]	< 0.01	1 to 10	0.101 to 1	0.101 to 1
O=C1NCCCCOCc2cc(ccc2N2CCCC2)Nc2nccc(n2)-c2ccc1cc2F [Example 34, 1^2-fluoro-4^4-(pyrrolidin-1-)-6-oxa-3,11-diaza-2(4,2)-pyrimidina-1(1,4),4(1,3)-dibenzenacyclododecaphan-12-one]	0.011 to 0.1	1 to 10	0.101 to 1	0.101 to 1
Cc1cc2ccc1-c1nc(ncc1C)Nc1cccc(c1)COCCCCNC2=O [Example 36, 1^2,2^5-dimethyl-6-oxa-3,11-diaza-2(4,2)-pyrimidina-1(1,4),4(1,3)-diben-zenacyclododecaphan-12-one]	1 to 10	> 10	> 10	> 10
CC1CCNC(=O)c2ccc(c([N+](=O)[O-])c2)-c2ccnc(n2)Nc2ccc(OCC3CCOC3)c(c2)COC1 (centres unmarked) [Example 135, 8-methyl-1^2-nitro-4^4-((tetrahydro-furan-3-yl)methoxy)-6-oxa-3,11-diaza-2(4,2)-pyrimidina-1(1,4),4(1,3)-dibenzenacyclododecaphan-12-one]	0.101 to 1	> 10	1 to 10	1 to 10
